Values after ≈ are worked out from the molar mass of the structure shown. Where two headings read alike, the source gives them in different places.
Tests used:
mouse spleen cell = assay: cells; format: cell-based; conditions: Mus musculus, 24 h, read-out: Interferon-inducing activity: Minimum effective concentration
Balb/c male mouse = assay: Interferon-inducing activity in mouse (in vivo), serum interferon titer after oral dosing; conditions: po, 2 h
[1] = tested on: human peripheral blood mononuclear cells (PBMC); assay: Interferon-inducing activity in human peripheral blood mononuclear cells (PBMC), IFN-α ELISA; format: cell-based; conditions: 24 h;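 also: IFN-α in pg/ml with a 1.25 pg/ml detection limit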
Method: Peripheral bloods were sampled from 5 healthy volunteers using a syringe containing heparin, and peripheral blood mononuclear cells (PBMC) were prepared by density gradient centrifugation utilizing the Lymphoprep™ (NYCOMED PHARMA AS). PBMCs were washed twice in serum-free RPMI 1640 medium and adjusted at 1×10^6 cells/ml in RPMI 1640 medium comprising 10% fetal bovine serum. The product was cultured in the presence of a test compound dissolved in dimethyl sulfoxide (final concentration: 0.1%) in an incubator in the presence of 5% CO^2 at 37° C. for 24 hours. As a control, 0.1% dimethyl sulfoxide containing no test compound was used. The culture supernatant was aseptically collected by filtration. Thereafter, the supernatant was cryopreserved at −20° C. or lower until it was subjected to the assay for IFN-inducing activity. Human IFN-α in the culture supernatant was quantified using a highly sensitive ELISA system (Amersham).

IL-4 production = assay: Inhibitory activity against Th2 cytokine produced from sensitized spleen cells: IL-4; format: cell-based, mouse; conditions: Mus musculus, 72 h, OVA-sensitized BALB/c spleen cells, 3 days, read-out: Inhibitory activity against IL-4 production
Method: (§1) A 7-week-old BALB/c mouse was immunized intraperitoneally with aluminum hydroxide gel (4 mg, 100 μl) having 10 μg of ovalbumin adsorbed thereon, and it was subjected to additional immunization with the same agent 14 days later. Seven days thereafter, spleen was taken out, and suspended in RPMI-1640 comprising inactivated fetal bovine serum (10%), 2-mercaptoethanol ([…]), penicillin G (100 U/ml), and streptomycin (100 μg/ml). Thus, a splenic cell suspension was prepared. Ovalbumin (0.5 mg/ml) and a test compound were added to a splenic cell suspension (5×10^6 cell/200 μl/well), and the resultant was cultured at 37° C. in the presence of 5% CO2 for 3 days. The cytokine level in the culture supernatant was quantified by ELISA. IFN-γ and IL-4 were assayed using a kit available from Amersham, and IL-5 was assayed using a kit available from Endogen.

IL-5 production = assay: Inhibitory activity against Th2 cytokine produced from sensitized spleen cells: IL-5; format: cell-based, mouse; conditions: Mus musculus, 72 h, OVA-sensitized BALB/c spleen cells, 3 days, read-out: Inhibitory activity against IL-5 production
Method: as §1

[2] = Gastrointestinal absorption in rat (drug level in blood by HPLC); format: in vivo; conditions: blood, dose 3 mg/kg oral, SD male rat
Method: A test compound was suspended in an aqueous solution of 0.5% carboxymethylcellulose, and the resulting suspension was orally administered to an SD male rat. Blood was sampled with the elapse of time, and the level of the drug in blood was assayed by HPLC.

male cynomolgus monkeys [3] = conditions: po, 10 mg/kg, 4 h
[4] = Solubility in citric acid/disodium phosphate buffers; conditions: citric acid/disodium phosphate buffer, thermodynamic from solid
Method: 5.53% citric acid (monohydrate) and 1.75% disodium phosphate (anhydrous) were mixed together to prepare buffers (pH 2.5, 5.5, 7.4). A compound was added thereto, the mixture was stirred in a vortex mixer and subjected to ultrasonication for 30 minutes. Thereafter, the resultant was stirred in a vortex mixer again and then centrifuged at 15,000 rpm for 20 minutes. The levels of the compounds in the supernatants were then quantified by HPLC.

[5] = tested on: rat model of eosinophil leukocytic infiltration; assay: Rat model of eosinophil leukocytic infiltration (OVA, bronchoalveolar lavage); format: in vivo; conditions: 0.01 mg/kg intratracheal, 2.5 hours before induction, lavage 24 hours after
Method: A rat was immunized intraperitoneally with 1 ml of a solution containing 1 mg of ovalbumin (OVA) and 100 mg of Al(OH)3 on day 0 and day 7. On day 14, a 1% OVA solution was sprayed for 15 minutes using a ultrasonic nebulizer to induce reactions. A test compound was administered intratracheally 2.5 hours before the induction. Bronchoalveolar lavage was performed 24 hours after the induction, and eosinocytes in the wash was stained with Hinkelman to count the number of stained cells. Sensi.−/Challe.+, CMC-Na, and Fluticasone were used as controls. FIG. 1 and the following table show the results.

male cynomolgus monkeys [6] = assay: Interferon-inducing activity in cynomolgus monkey (in vivo), serum interferon titer and vomition; conditions: 10 mg/kg oral

What does the source list for `CCCCNc1nc(N)c2nc(O)n(Cc3ccc(OC)nc3)c2n1` [Example 19, 2-Butylamino-8-hydroxy-9-(6-methoxy-3-pyridylmethyl)adenine]?
minimal effective concentration (mouse spleen cell): 0.003 µM; Interferon-inducing activity (Balb/c male mouse; 0.01 mg/kg): 14 ± 5 U/ml; Interferon-inducing activity (Balb/c male mouse; 0.03 mg/kg): 199 ± 84 U/ml; Interferon-inducing activity (Balb/c male mouse; 0.1 mg/kg): 383 ± 122 U/ml; Interferon-inducing activity (Balb/c male mouse; 0.3 mg/kg): 601 ± 187 U/ml; Interferon-inducing activity (human IFN-α in culture supernatant) ([1]; concentration 1 nM): 5 ± 1 pg/mL; Interferon-inducing activity (human IFN-α in culture supernatant) ([1]; concentration 3 nM): 12 ± 11 pg/mL; Interferon-inducing activity (human IFN-α in culture supernatant) ([1]; concentration 10 nM): 48 ± 34 pg/mL; Interferon-inducing activity (human IFN-α in culture supernatant) ([1]; concentration 30 nM): 60 ± 33 pg/mL; activity at 0.001 µM (IL-4 production; concentration 1 nM): 32%; activity at 0.01 µM (IL-4 production; concentration 10 nM): < 1%; activity at 0.1 µM (IL-4 production; concentration 100 nM): < 1%; activity at 0.001 µM (IL-5 production; concentration 1 nM): 83%; activity at 0.01 µM (IL-5 production; concentration 10 nM): 16%; activity at 0.1 µM (IL-5 production; concentration 100 nM): 13%; Cmax ([2]; read-out: Cmax): 188 ng/mL; Tmax ([2]; read-out: Tmax): 4 h; interferon titer in blood serum (average±SE) (male cynomolgus monkeys [3]): 12,173±6619 U/ml; solubility at 30 min ([4]; pH 2.5, aqueous buffer): 130 µg/mL (≈ 379 µM); solubility at 30 min ([4]; pH 5.5, aqueous buffer): 2 µg/mL (≈ 5.82 µM); solubility at 30 min ([4]; pH 7.4, aqueous buffer): 2 µg/mL (≈ 5.82 µM)

For `C[C@@H]1C[C@H]2[C@@H]3C[C@H](F)C4=CC(=O)C=C[C@]4(C)[C@@]3(F)[C@@H](O)C[C@]2(C)[C@@]1(O)C(=O)SCF` [Fluticasone, reference compound], which “eosinocytes in bronchoalveolar lavage, Average” value [5] is on record?
The value was 300.07 ×10^4 cells.

What does the source list for `CCCCOc1nc(N)c2nc(Br)n(Cc3ccc(Cl)nc3)c2n1` [Reference Example 2, 8-Bromo-2-butoxy-9-(6-chloro-3-pyridylmethyl)adenine]?
vomition observed (male cynomolgus monkeys [6]; cynomolgus monkeys): 4 out of 5 samples; interferon titer in blood serum (average±SE) (male cynomolgus monkeys [6]; four hours after the administration, five male cynomolgus monkeys): 18,305±5578 U/ml
